Reference: publication PMC3237899 (2011)

Legend:
Jak2-V617F = Jak2-V617F (Homo sapiens, UniProt O60674, V617F); experiment: in vitro kinase assay with recombinant protein, autophosphorylation; type: biochemical
Jak2 wild type = Jak2 wild type (Homo sapiens, UniProt O60674); experiment: as above; type: biochemical
Sequence of Jak2 wild type (O60674 whole entry): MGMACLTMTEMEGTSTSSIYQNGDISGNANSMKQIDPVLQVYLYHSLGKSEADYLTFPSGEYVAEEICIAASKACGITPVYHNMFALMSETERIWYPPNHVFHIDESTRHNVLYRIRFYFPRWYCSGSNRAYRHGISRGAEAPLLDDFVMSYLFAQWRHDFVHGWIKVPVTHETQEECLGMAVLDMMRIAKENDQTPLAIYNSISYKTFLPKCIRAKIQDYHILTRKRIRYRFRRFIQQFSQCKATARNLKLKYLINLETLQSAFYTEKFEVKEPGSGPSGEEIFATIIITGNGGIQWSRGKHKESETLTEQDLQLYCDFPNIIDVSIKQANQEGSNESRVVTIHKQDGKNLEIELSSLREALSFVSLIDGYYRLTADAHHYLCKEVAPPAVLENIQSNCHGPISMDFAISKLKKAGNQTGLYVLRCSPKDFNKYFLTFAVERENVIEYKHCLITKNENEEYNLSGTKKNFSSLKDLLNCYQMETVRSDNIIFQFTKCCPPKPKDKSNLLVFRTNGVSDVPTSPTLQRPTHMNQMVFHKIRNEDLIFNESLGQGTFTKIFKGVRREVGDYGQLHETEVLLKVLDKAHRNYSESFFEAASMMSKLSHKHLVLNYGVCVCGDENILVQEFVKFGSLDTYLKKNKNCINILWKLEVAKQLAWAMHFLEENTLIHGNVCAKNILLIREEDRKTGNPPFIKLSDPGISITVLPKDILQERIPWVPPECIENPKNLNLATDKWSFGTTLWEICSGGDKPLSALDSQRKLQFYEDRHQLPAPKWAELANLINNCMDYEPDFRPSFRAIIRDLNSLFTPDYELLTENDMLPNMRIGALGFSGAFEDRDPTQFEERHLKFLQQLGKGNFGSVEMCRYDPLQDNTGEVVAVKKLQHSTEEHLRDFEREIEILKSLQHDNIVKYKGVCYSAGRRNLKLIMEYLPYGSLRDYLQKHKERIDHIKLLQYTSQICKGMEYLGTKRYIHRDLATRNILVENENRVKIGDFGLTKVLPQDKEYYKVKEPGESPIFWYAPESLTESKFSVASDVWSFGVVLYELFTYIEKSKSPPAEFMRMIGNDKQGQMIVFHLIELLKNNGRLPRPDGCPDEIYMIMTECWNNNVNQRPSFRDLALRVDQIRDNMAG

Sequence of Jak2-V617F (O60674 545-1132 V617F limits assumed): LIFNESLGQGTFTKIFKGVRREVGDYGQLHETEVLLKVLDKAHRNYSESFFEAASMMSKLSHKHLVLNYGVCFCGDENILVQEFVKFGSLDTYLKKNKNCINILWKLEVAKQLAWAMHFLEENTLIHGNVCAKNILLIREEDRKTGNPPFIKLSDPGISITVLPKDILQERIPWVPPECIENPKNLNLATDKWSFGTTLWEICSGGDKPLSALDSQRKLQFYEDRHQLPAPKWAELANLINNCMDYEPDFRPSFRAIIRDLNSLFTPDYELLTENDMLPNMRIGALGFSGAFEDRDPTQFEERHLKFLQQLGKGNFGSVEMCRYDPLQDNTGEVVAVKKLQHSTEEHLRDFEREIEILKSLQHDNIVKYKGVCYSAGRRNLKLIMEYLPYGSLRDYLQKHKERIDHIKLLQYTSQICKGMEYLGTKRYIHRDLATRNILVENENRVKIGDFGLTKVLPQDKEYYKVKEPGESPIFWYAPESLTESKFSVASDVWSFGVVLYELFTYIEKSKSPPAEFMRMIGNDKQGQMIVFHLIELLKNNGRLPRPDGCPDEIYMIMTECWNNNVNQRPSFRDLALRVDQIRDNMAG

IC50 (Jak2-V617F): ~100 nM
IC50 (Jak2 wild type): ~1000 nM
Compound: CN(C)c1ccc(C(O)c2cc3ccccc3s2)cc1 (centres unmarked) [A46, 1-benzothiophen-2-yl-(4-dimethylaminophenyl)methanol]
